According to paper doi:10.1101/2023.07.12.548622v2 (biorxiv, 2023):

How the values were obtained:
[1] = molecular target: T1, hACKR3 (atypical chemokine receptor 3; CXCR7) (Homo sapiens, UniProt P25106); test: [3H]VUF15485 displacement, HEK293T membranes; type: binding; conditions: for pIC50: 5 nM [3H]VUF15485, 25 °C, 2 h
[2] = molecular target: T1, hACKR3 (atypical chemokine receptor 3; CXCR7); test: […]CXCL12 displacement, intact HEK293T cells; type: cell-based
[3] = molecular target: T1, hACKR3 (atypical chemokine receptor 3; CXCR7); test: BRET beta-arrestin2 recruitment, HEK293T; type: cell-based
[4] = molecular target: hACKR3 (atypical chemokine receptor 3; CXCR7) (Homo sapiens, UniProt P25106, H121A); test: homologous [3H]VUF15485 competition binding, HEK293T membranes
[5] = molecular target: T1, hACKR3 (atypical chemokine receptor 3; CXCR7); test: as above
[6] = molecular target: hACKR3 (atypical chemokine receptor 3; CXCR7) (Homo sapiens, UniProt P25106, E213Q); test: as above
[7] = molecular target: hACKR3 (atypical chemokine receptor 3; CXCR7) (Homo sapiens, UniProt P25106, H298A); test: as above
mouse ACKR3 (mACKR3) = mouse ACKR3 (mACKR3) (Mus musculus, UniProt P56485); test: NanoBiT beta-arrestin2 recruitment, HEK293T; type: cell-based
[8] = molecular target: hACKR3 (atypical chemokine receptor 3; CXCR7) (Homo sapiens, UniProt P25106, S103D); test: homologous [3H]VUF15485 competition binding, HEK293T membranes
[9] = molecular target: hACKR3 (atypical chemokine receptor 3; CXCR7) (Homo sapiens, UniProt P25106, Q301E); test: as above
[10] = molecular target: hACKR3 (atypical chemokine receptor 3; CXCR7) (Homo sapiens, UniProt P25106, Y51A); test: as above
[11] = molecular target: hACKR3 (atypical chemokine receptor 3; CXCR7) (Homo sapiens, UniProt P25106, V217A); test: as above
[12] = molecular target: hACKR3 (atypical chemokine receptor 3; CXCR7) (Homo sapiens, UniProt P25106, D275N); test: as above
[13] = molecular target: T1, hACKR3 (atypical chemokine receptor 3; CXCR7); test: [3H]VUF15485 saturation binding, HEK293T membranes

T1 sequence (P25106 whole entry): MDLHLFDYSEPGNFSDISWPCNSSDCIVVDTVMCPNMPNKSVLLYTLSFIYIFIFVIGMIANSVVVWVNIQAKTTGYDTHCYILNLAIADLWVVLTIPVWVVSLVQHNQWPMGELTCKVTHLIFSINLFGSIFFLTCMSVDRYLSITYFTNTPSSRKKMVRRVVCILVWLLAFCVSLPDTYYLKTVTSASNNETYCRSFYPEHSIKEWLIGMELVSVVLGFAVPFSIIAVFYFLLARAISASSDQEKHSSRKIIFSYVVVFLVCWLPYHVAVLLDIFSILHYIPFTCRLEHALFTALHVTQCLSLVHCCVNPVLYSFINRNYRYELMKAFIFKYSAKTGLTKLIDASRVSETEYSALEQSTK
mouse ACKR3 (mACKR3), sequence (P56485 whole entry): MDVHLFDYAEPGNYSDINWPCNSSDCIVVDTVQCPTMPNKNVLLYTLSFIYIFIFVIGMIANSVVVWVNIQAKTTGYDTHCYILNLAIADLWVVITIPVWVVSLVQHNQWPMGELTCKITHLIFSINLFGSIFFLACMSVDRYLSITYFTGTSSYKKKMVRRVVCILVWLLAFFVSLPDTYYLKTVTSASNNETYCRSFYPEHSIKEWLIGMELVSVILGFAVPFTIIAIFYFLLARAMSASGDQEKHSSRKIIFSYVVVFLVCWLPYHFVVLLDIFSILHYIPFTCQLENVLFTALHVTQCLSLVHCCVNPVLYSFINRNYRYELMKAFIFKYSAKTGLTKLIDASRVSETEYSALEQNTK
hACKR3 (atypical chemokine receptor 3; CXCR7) (Homo sapiens, UniProt P25106, H298A), sequence (P25106 whole entry H298A): as the sequence (P25106 whole entry) above, with H298A counted along it
hACKR3 (atypical chemokine receptor 3; CXCR7) (Homo sapiens, UniProt P25106, E213Q), sequence (P25106 whole entry E213Q): as the sequence (P25106 whole entry) above, with E213Q counted along it
hACKR3 (atypical chemokine receptor 3; CXCR7) (Homo sapiens, UniProt P25106, D275N), sequence (P25106 whole entry D275N): as the sequence (P25106 whole entry) above, with D275N counted along it
hACKR3 (atypical chemokine receptor 3; CXCR7) (Homo sapiens, UniProt P25106, V217A), sequence (P25106 whole entry V217A): as the sequence (P25106 whole entry) above, with V217A counted along it
hACKR3 (atypical chemokine receptor 3; CXCR7) (Homo sapiens, UniProt P25106, H121A), sequence (P25106 whole entry H121A): as the sequence (P25106 whole entry) above, with H121A counted along it
hACKR3 (atypical chemokine receptor 3; CXCR7) (Homo sapiens, UniProt P25106, Y51A), sequence (P25106 whole entry Y51A): as the sequence (P25106 whole entry) above, with Y51A counted along it
hACKR3 (atypical chemokine receptor 3; CXCR7) (Homo sapiens, UniProt P25106, Q301E), sequence (P25106 whole entry Q301E): as the sequence (P25106 whole entry) above, with Q301E counted along it
hACKR3 (atypical chemokine receptor 3; CXCR7) (Homo sapiens, UniProt P25106, S103D), sequence (P25106 whole entry S103D): as the sequence (P25106 whole entry) above, with S103D counted along it

CC1(C)[C@H]2CC=C(C[N+](C)(C)Cc3ccc(-c4ccccc4Br)cc3)[C@@H]1C2.[I-] [38 in Wijtmans et al., 2012b, VUF11222]
pIC50 [1]: 5.8 ± 0.2

VUF16771 [28 in Adlere et al., 2019]
pIC50 [1]: 5.8 ± 0.1

VUF10990 [10q in Wijtmans et al., 2011]
pIC50 [1]: 5.9 ± 0.1

COc1cc(C(=O)N(CCC2CCCN2C)C/C(C)=C/c2ccccc2F)cc(OC)c1OC (stereo not shown) [VUF11207]
IC50 [2]: 0.01 µM
EC50 [3]: 0.0316 µM

VUF16779 [22 in Adlere et al., 2019]
pIC50 [1]: 6.0 ± 0.1

CC1(C)[C@H]2CC=C(C[N+](C)(C)Cc3ccc(-c4ccccc4I)cc3)[C@@H]1C2.[I-] [39 in Wijtmans et al., 2012b, VUF11418]
pIC50 [1]: 5.9 ± 0.3

VUF16545 [1 in Uto-Konimi et al., 2013]
pIC50 [1]: 7.8 ± 0.1

Oc1ccc(CN2CCC(CNCc3ccccc3)CC2)cc1 [9 in Adlere et al., 2019, VUF16774]
IC50 [1]: 10 µM

CC1(C)CN2C(CS/C(=N\C3CCCCC3)NC3CCCCC3)=CSC2=N1 [IT1t]
IC50 [1]: ≥ 100 µM

COc1cc(C(=O)N(CC[C@@H]2CCCN2C)C/C(C)=C/c2ccccc2F)cc(OC)c1OC [VUF13744]
IC50 [2]: 0.02 µM
EC50 [3]: 0.0398 µM

COc1cc(C(=O)N(CC[C@H]2CCCN2C)C/C(C)=C/c2ccccc2F)cc(OC)c1OC [VUF15485, (R,E)-N-(3-(2-fluorophenyl)-2-methylallyl)-3,4,5-trimethoxy-N-(2-(1-methylpyrrolidin-2-yl)ethyl)benzamide]
Ki [4]: 0.055 µM
Ki [5]: 0.0245 µM
Ki [6]: 0.0105 µM
Ki [7]: 0.0447 µM
EC50 (mouse ACKR3 (mACKR3)): 0.02 µM
Ki [8]: 0.0955 µM
IC50 [2]: 0.00501 µM
Ki [9]: 0.017 µM
Ki [10]: 0.049 µM
Ki [11]: 0.038 µM
Ki [12]: 0.0186 µM
Kd [13]: 0.016 ± 0.0024 µM
EC50 [3]: 0.0251 µM

VUF11403 [30 in Wijtmans et al., 2012a]
pIC50 [1]: 7.9 ± 0.1

c1cc(CN2CCCNCCNCCCNCC2)ccc1CN1CCCNCCNCCCNCC1 [AMD3100]
IC50 [1]: ≥ 100 µM

CCNC(=O)c1cnc(N2CCN(C3CCN(Cc4ccc(Cl)cc4)CC3)C(CC)C2)c(Cl)c1 (stereo not shown) [VUF11211]
pIC50 [1]: 4.7 ± 0.2
